Publication PMC7168933, “Design, Synthesis and Biochemical Evaluation of Novel Ethanoanthracenes and Related Compounds to Target Burkitt’s Lymphoma” (Pharmaceuticals, 2020)

Assays:
[1] = tested on: MUTU-1 Burkitt lymphoma cell line (EBV+); assay: cells; details: Mutu-1, 24 h; for viability at 1 µM: read-out: MUTU-1 Cell Viability % 1 μM, 1 μM, 24 h; for viability at 10 µM: read-out: MUTU-1 Cell Viability % 10 μM, 10 μM, 24 h; for IC50: read-out: IC50 MUTU-I 24 h
[2] = tested on: DG-75 Burkitt lymphoma cell line (EBV−, chemoresistant); assay: cells; details: Homo sapiens, DG-75, 48 h; for viability at 1 µM: read-out: DG-75 Cell Viability % 1 μM, 1 μM, 48 h; for viability at 10 µM: read-out: DG-75 Cell Viability % 10 μM, 10 μM, 48 h

Row | SMILES | melting point [°C] | viability at 1 µM [1] [%] | viability at 10 µM [1] [%] | viability at 1 µM [2] [%] | viability at 10 µM [2] [%] | IC50 [1] [nM]
1 | COc1cc(CN2C(=O)C3C4c5ccccc5C(/C=C(\C)[N+](=O)[O-])(c5ccccc54)C3C2=O)cc(OC)c1OC (centres unmarked) [Compound 17l, (E)-9-(2-Nitroprop-1-en-1-yl)-13-(3,4,5-trimethoxybenzyl)-9,10-dihydro-9,10-[3,4]epipyrroloanthracene-12,14-dione] | 227 to 229 | 66.8 | 77.3 | 81.9 | 82.1 | 
2 | C/C(=C\C12c3ccccc3C(c3ccccc31)C1C(=O)N(c3ccc(Cl)cc3)C(=O)C12)[N+](=O)[O-] (centres unmarked) [Compound 17c, (E)-13-(4-Chlorophenyl)-9-(2-nitroprop-1-en-1-yl)-9,10-dihydro-9,10-[3,4]epipyrroloanthracene-12,14-dione] | 298 to 300 | 78 | 77.6 | 96.6 | 86.3 | 
3 | C/C(=C\C12c3ccccc3C(Cl)(c3ccccc31)C1C(=O)NC(=O)C12)[N+](=O)[O-] (centres unmarked) [Compound 13k, (E)-9-Chloro-10-(2-nitroprop-1-en-1-yl)-9,10-dihydro-9,10-[3,4]epipyrroloanthracene-12,14-dione] | 295 to 297 | 83.3 | 51.6 | 78.2 | 101 | 
4 | COC(=O)C1C2c3ccccc3C(/C=C/[N+](=O)[O-])(c3ccccc32)C1C(=O)OC (centres unmarked) [Compound 19e, Dimethyl (E)-9-(2-nitrovinyl)-9,10-dihydro-9,10-ethanoanthracene-11,12-dicarboxylate] | 141 to 143 | 84.7 | 10.7 | 102 | 10.3 | 
5 | O=C1C2C3c4ccccc4C(CC[N+](=O)[O-])(c4ccccc43)C2C(=O)N1c1ccccc1 (centres unmarked) [Compound 14c, 9-(2-Nitroethyl)-13-phenyl-9,10-dihydro-9,10-[3,4]epipyrroloanthracene-12,14-dione] | 248 to 250 | 75.5 | 79.2 | 75.7 | 81.4 | 
6 | CC/C(=C\C12c3ccccc3C(c3ccccc31)C1C(=O)N(c3ccc(OC)cc3)C(=O)C12)[N+](=O)[O-] (centres unmarked) [Compound 17f] | 254 to 256 | 86.5 | 84.5 | 91.4 | 85.1 | 
7 | COc1cc(N2C(=O)C3C4c5ccccc5C(/C=C/[N+](=O)[O-])(c5ccccc54)C3C2=O)cc(OC)c1OC (centres unmarked) [Compound 16f, (E)-9-(2-Nitrovinyl)-13-(3,4,5-trimethoxyphenyl)-9,10-dihydro-9,10-[3,4]epipyrroloanthracene-12,14-dione] | 270 to 272 | 1.8 | 1.1 | 25.6 | 0.46 | 240
8 | O=C1NC(=O)C2C1C1c3ccccc3C2(CC[N+](=O)[O-])c2ccccc21 (centres unmarked) [Compound 14b, 9-(2-Nitroethyl)-9,10-dihydro-9,10-[3,4]epipyrroloanthracene-12,14-dione] | 295 to 297 | 58.5 | 95 | 79.3 | 101 | 
9 | O=C1C2C3c4ccccc4C(/C=C/[N+](=O)[O-])(c4ccccc43)C2C(=O)N1CCc1ccccc1 (centres unmarked) [Compound 17n] | 152 to 156 | 2.8 | 2 | 19.9 | 0.07 | 260
10 | C/C(=C\C12c3ccccc3C(c3ccccc31)C1C(=O)N(c3ccccc3)C(=O)C12)[N+](=O)[O-] (centres unmarked) [Compound 17a, (E)-9-(2-Nitroprop-1-en-1-yl)-13-phenyl-9,10-dihydro-9,10-[3,4]epipyrroloanthracene-12,14-dione] | 263 to 266 | 79.8 | 68.6 | 78.3 | 88.9 | 
11 | CC/C(=C\C12c3ccccc3C(Cl)(c3ccccc31)C1C(=O)NC(=O)C12)[N+](=O)[O-] (centres unmarked) [Compound 13l, (E)-9-Chloro-10-(2-nitrobut-1-en-1-yl)-9,10-dihydro-9,10-[3,4]epipyrroloanthracene-12,14-dione] | 294 to 298 | 88.6 | 88.3 | 90 | 102 | 
12 | CC/C(=C\C12c3ccccc3C(c3ccccc31)C1C(=O)N(Cc3ccccc3)C(=O)C12)[N+](=O)[O-] (centres unmarked) [Compound 17k, (E)-13-Benzyl-9-(2-nitrobut-1-en-1-yl)-9,10-dihydro-9,10-[3,4]epipyrroloanthracene-12,14-dione] | 188 to 199 | 80.4 | 94 | 74.8 | 96 | 
13 | O=C1C2C3c4ccccc4C(/C=C/[N+](=O)[O-])(c4ccccc43)C2C(=O)N1c1cccc(Cl)c1 (centres unmarked) [Compound 16k, (E)-13-(3-Chlorophenyl)-9-(2-nitrovinyl)-9,10-dihydro-9,10-[3,4]epipyrroloanthracene-12,14-dione] | 258 to 261 | 2.7 | 0.84 | 69 | 0 | 
14 | O=C1NC(=O)C2C3c4ccccc4C(c4ccccc43)C12 (centres unmarked) [Compound 21b] | 299 to 300 | 104 | 92.8 | 82 | 74.5 | 
15 | CCC(=CC12c3ccccc3C(c3ccccc31)c1ccccc12)[N+](=O)[O-] [Compound 20c, (E)-9-(2-Nitrobut-1-en-1-yl)-9,10-dihydro-9,10-[1,2]benzenoanthracene] | 210 to 211 | 106 | 102 | 95.1 | 84.8 | 
16 | N#CC(C#N)=CC12c3ccccc3C(c3ccccc31)C1C(=O)OC(=O)C12 (centres unmarked) [Compound 23d, 2-((12,14-Dioxo-9,10-[3,4]furanoanthracen-9(10H)-yl)methylene)malononitrile] | 196 to 198 | 99.8 | 82.7 | 103 | 95.7 | 
17 | O=C1OC(=O)C2C1C1c3ccccc3C2(CC[N+](=O)[O-])c2ccccc21 (centres unmarked) [Compound 14a, 9-(2-Nitroethyl)-9,10-dihydro-9,10-[3,4]furanoanthracene-12,14-dione] | 242 to 244 | 76.7 | 99.3 | 83 | 102 | 
18 | COC(=O)c1ccc(N2C(=O)C3C4c5ccccc5C(/C=C/[N+](=O)[O-])(c5ccccc54)C3C2=O)cc1 (centres unmarked) [Compound 16h, Methyl (E)-4-(9-(2-nitrovinyl)-12,14-dioxo-9,10-dihydro-9,10-[3,4]epipyrroloanthracen-13-yl)benzoate] | 254 to 255 | 2.3 | 0.79 | 20.8 | 0.18 | 200
19 | N#C/C=C/C12c3ccccc3C(c3ccccc31)C1C(=O)N(c3ccccc3)C(=O)C12 (centres unmarked) [Compound 23c, (E)-3-(12,14-Dioxo-13-phenyl-9,10-[3,4]epipyrroloanthracen-9(10H)-yl)acrylonitrile] | 274 to 281 | 90.7 | 74.1 | 94.4 | 89.1 | 
20 | O=C(c1ccccc1)c1ccc(N2C(=O)C3C4c5ccccc5C(/C=C/[N+](=O)[O-])(c5ccccc54)C3C2=O)cc1 (centres unmarked) [Compound 16i, (E)-13-(4-Benzoylphenyl)-9-(2-nitrovinyl)-9,10-dihydro-9,10-[3,4]epipyrroloanthracene-12,14-dione] | 232 to 234 | 2 | 1.2 | 77.5 | 2.7 | 240
21 | O=C1C2C3c4ccccc4C(c4ccccc43)C2C(=O)N1c1ccccc1 (centres unmarked) [Compound 21c] | 227 to 229 | 93 | 91.2 | 85.7 | 71.3 | 
22 | Nc1ccc(N2C(=O)C3C4c5ccccc5C(/C=C/[N+](=O)[O-])(c5ccccc54)C3C2=O)cc1 (centres unmarked) [Compound 16n, (E)-13-(4-Aminophenyl)-9-(2-nitrovinyl)-9,10-dihydro-9,10-[3,4]epipyrroloanthracene-12,14-dione] | > 300 | 1.7 | 3.7 | 20.8 | 0.18 | 300
23 | CC/C(=C\C12c3ccccc3C(Cl)(c3ccccc31)C1C(=O)OC(=O)C12)[N+](=O)[O-] (centres unmarked) [Compound 13f, (E)-9-Chloro-10-(2-nitrobut-1-en-1-yl)-9,10-dihydro-9,10-[3,4]furanoanthracene-12,14-dione] | 259 to 263 | 85.3 | 91.6 | 79.9 | 95.1 | 
24 | CC/C(=C\C12c3ccccc3C(c3ccccc31)C1C(=O)N(Cc3cc(OC)c(OC)c(OC)c3)C(=O)C12)[N+](=O)[O-] (centres unmarked) [Compound 17m, (E)-9-(2-Nitrobut-1-en-1-yl)-13-(3,4,5-trimethoxybenzyl)-9,10-dihydro-9,10-[3,4]epipyrroloanthracene-12,14-dione] | 224 to 229 | 82.2 | 66.8 | 82.2 | 77.8 | 
